Reference: patent US10077241B2 (Janssen Pharmaceutica NV, priority 2014, dated 2018)

Assays:
TGR5 (STC1 cell line) = biological target: T1, TGR5 (STC1 cell line) (Mus musculus, UniProt Q80SS6); assay: STC1 cAMP Agonist EC50 Determination
T1 sequence (Q80SS6 1-329): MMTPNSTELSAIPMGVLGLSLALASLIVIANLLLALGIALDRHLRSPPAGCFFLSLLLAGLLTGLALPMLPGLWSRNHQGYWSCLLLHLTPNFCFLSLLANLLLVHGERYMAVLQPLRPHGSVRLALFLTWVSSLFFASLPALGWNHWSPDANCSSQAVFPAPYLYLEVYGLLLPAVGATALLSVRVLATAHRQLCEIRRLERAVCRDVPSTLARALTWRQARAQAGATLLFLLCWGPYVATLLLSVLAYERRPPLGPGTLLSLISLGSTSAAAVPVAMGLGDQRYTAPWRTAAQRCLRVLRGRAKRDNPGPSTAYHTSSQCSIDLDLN
Procedure: Cell stocks were maintained and grown in a sub-confluent state using standard cell culture procedures. The day before the experiment, the cells were harvested with non-enzymatic cell dissociation buffer and resuspended in complete growth media at 4E5 c/ml. […] The seeded plates were incubated overnight at 37° C.
On the day of the experiment, Assay Buffer containing: HBSS with Ca^2+and Mg^2+; 5 μM HEPES; 0.1% BSA; and, 0.5 μM IBMX was prepared. The growth medium was washed from the cell plates and replaced with 20 μL of Assay Buffer. […] The reaction was stopped by the addition of 20 μL 0.1% Formic Acid to all wells. Sixty minutes later 30 μL 3 M deuterated AMP was added to all wells (as a control for volume addition to the mass spec). Plates were mixed on a plate shaker for 1 min and centrifugated (5 min 3000 RPMs no brakes).
Plates were run on a 4000 QTrap triple-quadrapole Mass spectrometer in positive ion mode coupled with a Biocius RapidFire 300is. […] Two ions (cAMP and deuterated AMP were measured using Multiple Reaction Monitoring (MRM) in positive ion mode and the area under the curve (AUC) was determined for each of the ions.
The data from the Mass Spec/Rapid Plate AUC for cAMP and deuterated AMP were imported to an Excel worksheet. A Normalized signal (NS) was generated for each well=(cAMP AUC for the well/deut AMP AUC for the well)*average deut AMP AUC for the plate). nM cAMP was calculated for each well from the cAMP standard curves located on each plate by first calculating the slope and deriving the intercept (b).
EC50 values were determined from a 4-point fit (Hill equation) of a single 11-point compound dosing.

[1] = biological target: T2, TGR5 (NCI-H716 cell line) (Homo sapiens, UniProt Q8TDU6); assay: NCI-H716 cAMP Agonist EC50 Determination
T2 sequence (Q8TDU6 1-330): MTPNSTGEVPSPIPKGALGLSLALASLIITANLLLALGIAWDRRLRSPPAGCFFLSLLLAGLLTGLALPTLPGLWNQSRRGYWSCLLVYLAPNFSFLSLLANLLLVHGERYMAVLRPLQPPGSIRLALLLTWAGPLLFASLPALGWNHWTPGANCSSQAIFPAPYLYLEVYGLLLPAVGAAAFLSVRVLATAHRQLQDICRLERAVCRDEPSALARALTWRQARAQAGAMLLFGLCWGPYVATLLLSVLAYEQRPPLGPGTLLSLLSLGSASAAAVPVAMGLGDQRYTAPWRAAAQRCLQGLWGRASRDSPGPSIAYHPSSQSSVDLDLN

Structure (SMILES) | EC50 (TGR5 (STC1 cell line)) [µM] | EC50 [1] [µM]
COc1cc(C2CCCc3nc(SCc4c(Br)cncc4Br)n(-c4ccc(F)cc4)c32)ccc1Cl (stereo not shown) [Example 60, 2-((3,5-dibromopyridin-4-yl)methylthio)-7-(4-chloro-3-methoxyphenyl)-1-(4-fluorophenyl)-4,5,6,7-tetrahydro-1H-benzo[d]imidazole] | 15.5 | > 50
COc1cc(C2CC(C)Cc3nc(SCc4c(F)cccc4Cl)n(-c4ccc(F)cc4)c32)ccc1Cl (stereo not shown) [Example 61, 7-(4-chloro-3-methoxyphenyl)-2-[[(2-chloro-6-fluorophenyl)methyl]sulfanyl]-1-(4-fluorophenyl)-5-methyl-4,5,6,7-tetrahydro-1H-1,3-benzodiazole] | 3.89 | > 50
COCCOCCOCCOCCNC(=O)c1cc(F)c(CSc2nc3c(n2-c2ccc(F)cc2)C(c2cc(OC)c(OC)cc2Br)CCC3)c(F)c1 (stereo not shown) [Example 68a, 4-(((7-(2-bromo-4,5-dimethoxyphenyl)-1-(4-fluorophenyl)-4,5,6,7-tetrahydro-1H-benzo[d]imidazol-2-yl)thio)methyl)-3,5-difluoro-N-(2,5,8,11-tetraoxatridecan-13-yl)benzamide] | 7.39 | 22
COCCOCCOCCOCCNC(=O)c1cc(F)c(CSc2nc3c(n2-c2ccc(F)cc2)C(c2cc(OC)c(OC)c(Br)c2Br)CCC3)c(F)c1 (stereo not shown) [Example 68b, 4-(((7-(2,3-dibromo-4,5-dimethoxyphenyl)-1-(4-fluorophenyl)-4,5,6,7-tetrahydro-1H-benzo[d]imidazol-2-yl)thio)methyl)-3,5-difluoro-N-(2,5,8,11-tetraoxatridecan-13-yl) benzamide] | 28.6 | > 50
COc1cccc(C2CCCc3nc(SCc4c(F)cncc4F)n(-c4ccc(F)c(OC)c4)c32)c1 (stereo not shown) [Example 72, 2-(((3,5-difluoropyridin-4-yl)methyl)thio)-1-(4-fluoro-3-methoxyphen)-7-(3-methoxyphenyl)-4,5,6,7-tetrahydro-1H-benzo[d]imidazole] | 0.91 | 35.2
COc1cc(C2(C)CCCc3nc(SCc4c(F)cc(C(=O)O)cc4F)n(-c4ccc(F)cc4)c32)ccc1Cl (stereo not shown) [Example 81, 4-((7-(4-chloro-3-methoxyphenyl)-1-(4-fluorophenyl)-4,5,6,7-tetrahydro-7-methyl-1H-benzo[d]imidazol-2-ylthio)methyl)-3,5-difluorobenzoic acid trifluoroacetic acid] | 1.75 | > 50
COC(=O)[C@H](CCCNC(=N)N)NC(=O)c1cc(F)c(CSc2nc3c(n2-c2ccc(F)cc2)C(C)(c2ccc(Cl)c(OC)c2)CCC3)c(F)c1 (stereo partly drawn) [Example 82, (S)-methyl 2-(4-((7-(4-chloro-3-methoxyphenyl)-1-(4-fluorophenyl)-4,5,6,7-tetrahydro-7-methyl-1H-benzo[d]imidazol-2-ylthio)methyl)-3,5-difluorobenzamido)-5-guanidinopentanoate trifluoroacetic acid] | 0.18 | 15.2
COc1cc(C2(C)CCCc3nc(SCc4c(F)cc(C(=O)N[C@@H](CCCNC(=N)N)C(=O)O)cc4F)n(-c4ccc(F)cc4)c32)ccc1Cl (stereo partly drawn) [Example 83, (S)-2-(4-((7-(4-chloro-3-methoxyphenyl)-1-(4-fluorophenyl)-4,5,6,7-tetrahydro-7-methyl-1H-benzo[d]imidazol-2-ylthio)methyl)-3,5-difluorobenzamido)-5-guanidinopentanoic acid trifluoroacetic acid] | 0.13 | 17.2
COc1cc(C2(C)CCCc3nc(SCc4c(F)cc(C(=O)NCCOCCOCCOCCO)cc4F)n(-c4ccc(F)cc4)c32)ccc1Cl (stereo not shown) [Example 84, 4-((7-(4-chloro-3-methoxyphenyl)-1-(4-fluorophenyl)-7-methyl-4,5,6,7-tetrahydro-1H-benzo[d]imidazol-2-ylthio)methyl)-3,5-difluoro-N-(2-(2-(2-(2-hydroxyethoxy)ethoxy)ethoxy)ethyl)benzamide trifluoroacetic acid] | 0.34 | 38.7
COc1cc(C2(C)CCCc3nc(SCc4ncncc4Cl)n(-c4ccc(F)cc4)c32)ccc1Cl (stereo not shown) [Example 86, 7-(4-chloro-3-methoxyphenyl)-2-((5-chloropyrimidin-4-yl)methylthio)-1-(4-fluorophenyl)-7-methyl-4,5,6,7-tetrahydro-1H-benzo[d]imidazole trifluoroacetic acid] | 2.22 | 27.1
COc1cc(C2(C)CCCc3nc(SCc4ccccc4)n(-c4ccc(F)cc4)c32)ccc1Cl (stereo not shown) [Example 87, 2-(benzylsulfanyl)-7-(4-chloro-3-methoxyphenyl)-1-(4-fluorophenyl)-7-methyl-4,5,6,7-tetrahydro-1H-1,3-benzodiazole] | 47.8 | > 50
COc1cc(C2(C)CCCc3nc(SCc4ccncc4)n(-c4ccc(F)cc4)c32)ccc1Cl (stereo not shown) [Example 88] | 4.78 | > 50
COc1cc(C2(C)CCCc3nc(SCc4c(F)cc(C#N)cc4F)n(-c4ccc(F)cc4)c32)ccc1Cl (stereo not shown) [Example 89, 4-((7-(4-chloro-3-methoxyphenyl)-1-(4-fluorophenyl)-7-methyl-4,5,6,7-tetrahydro-1H-benzo[d]imidazol-2-ylthio)methyl)-3,5-difluorobenzonitrile trifluoroacetic acid] | 2.08 | > 50

Further lines, results first:

EC50 (TGR5 (STC1 cell line)) [µM] | EC50 [1] [µM] | Structure (SMILES)
0.15 | 5.34 | COc1ccc(C2CCCc3nc(SCc4c(F)cc(C#N)cc4F)n(-c4ccc(F)cc4)c32)cc1OC (stereo not shown) [Example 64, 4-(((7-(3,4-dimethoxyphenyl)-1-(4-fluorophenyl)-4,5,6,7-tetrahydro-1H-benzo[d]imidazol-2-yl)thio)methyl)-3,5-difluorobenzonitrile]
3.75 | > 50 | COc1ccc(C2CCCc3nc(SCc4c(F)cc(C(=O)O)cc4F)n(-c4ccc(F)cc4)c32)cc1OC (stereo not shown) [Example 65, 4-(((7-(3,4-dimethoxyphenyl)-1-(4-fluorophenyl)-4,5,6,7-tetrahydro-1H-benzo[d]imidazol-2-yl)thi)methyl)-3,5-difluorobenzoic acid]
0.9 | 2.4 | COCCOCCOCCOCCNC(=O)c1cc(F)c(CSc2nc3c(n2-c2ccc(F)cc2)C(c2ccc(OC)c(OC)c2)CCC3)c(F)c1 (stereo not shown) [Example 66, 4-(((7-(3,4-dimethoxyphenyl)-1-(4-fluorophenyl)-4,5,6,7-tetrahydro-1H-benzo[d]imidazol-2-yl)thio)methyl)-3,5-difluoro-N-(2,5,8,11-tetraoxatridecan-13-yl)benzamide]
0.5 | 8.34 | COc1ccc(C2CCCc3nc(SCc4c(F)cc(OCCCl)cc4F)n(-c4ccc(F)cc4)c32)cc1OC (stereo not shown) [Example 67, 2-((4-(2-chloroethoxy)-2,6-difluorobenzyl)thio)-7-(3,4-dimethoxyphenyl)-1-(4-fluorophenyl)-4,5,6,7-tetrahydro-1H-benzo[d]imidazole]
0.85 | 7.97 | COc1ccc(C2CCCc3nc(SCc4c(F)cc(OCCN5CCCC5)cc4F)n(-c4ccc(F)cc4)c32)cc1OC (stereo not shown) [Example 69, 2-((2,6-difluoro-4-(2-(pyrrolidin-1-yl)ethoxy)benzyl)thio)-7-(3,4-dimethoxyphenyl)-1-(4-fluorophenyl)-4,5,6,7-tetrahydro-1H-benzo[d]imidazole]
1.91 | > 50 | COc1cccc(C2CCCc3nc(SCc4c(F)cncc4F)n(-c4ccc(F)cc4)c32)c1 (stereo not shown) [Example 71, 2-(((3,5-difluoropyridin-4-yl)methyl)thio)-1-(4-fluorophenyl)-7-(3-methoxyphenyl)-4,5,6,7-tetrahydro-1H-benzo[d]imidazole]
1.53 | 47.5 | COc1cc(C2CCCc3nc(SCc4c(F)cc(C#N)cc4F)n(-c4ccc(F)cc4)c32)ccc1F (stereo not shown) [Example 73, 3,5-difluoro-4-(((7-(4-fluoro-3-methoxyphenyl)-1-(4-fluorophenyl)-4,5,6,7-tetrahydro-1H-benzo[d]imidazol-2-yl)thio)methyl)benzonitrile]
1.1 | > 50 | COc1cc(C2CCCc3nc(SCc4c(F)cc(C(=O)O)cc4F)n(-c4ccc(F)cc4)c32)ccc1F (stereo not shown) [Example 74, 3,5-difluoro-4-(((7-(4-fluoro-3-methoxyphenyl)-1-(4-fluorophenyl)-4,5,6,7-tetrahydro-1H-benzo[d]imidazol-2-yl)thio)methyl)benzoic acid]
2.76 | > 50 | COCCOCCOCCOCCNC(=O)c1cc(F)c(CSc2nc3c(n2-c2ccc(F)cc2)C(c2ccc(F)c(OC)c2)CCC3)c(F)c1 (stereo not shown) [Example 75, 3,5-difluoro-4-(((7-(4-fluoro-3-methoxyphenyl)-1-(4-fluorophenyl)-4,5,6,7-tetrahydro-1H-benzo[d]imidazol-2-yl)thio)methyl)-N-(2,5,8,11-tetraoxatridecan-13-yl)benzamide]
2.94 | 19.2 | COc1cc(C2(C)CCCc3nc(SCc4c(F)cc(OCCN(C)C)cc4F)n(-c4ccc(F)cc4)c32)ccc1Cl (stereo not shown) [Example 80, 2-(4-((7-(4-chloro-3-methoxyphenyl)-1-(4-fluorophenyl)-4,5,6,7-tetrahydro-7-methyl-1H-benzo[d]imidazol-2-ylthio)methyl)-3,5-difluorophenoxy)-N,N-dimethylethanamine]
